{"source": "paper doi:10.1101/706028v1", "about": "(biorxiv, 2019)", "key": {"[1]": {"target": "ΔCRD Nluc-SMO (Mus musculus, UniProt P56726, D477G/E522K)", "sequence (P56726 185-793 D477G/E522K)": "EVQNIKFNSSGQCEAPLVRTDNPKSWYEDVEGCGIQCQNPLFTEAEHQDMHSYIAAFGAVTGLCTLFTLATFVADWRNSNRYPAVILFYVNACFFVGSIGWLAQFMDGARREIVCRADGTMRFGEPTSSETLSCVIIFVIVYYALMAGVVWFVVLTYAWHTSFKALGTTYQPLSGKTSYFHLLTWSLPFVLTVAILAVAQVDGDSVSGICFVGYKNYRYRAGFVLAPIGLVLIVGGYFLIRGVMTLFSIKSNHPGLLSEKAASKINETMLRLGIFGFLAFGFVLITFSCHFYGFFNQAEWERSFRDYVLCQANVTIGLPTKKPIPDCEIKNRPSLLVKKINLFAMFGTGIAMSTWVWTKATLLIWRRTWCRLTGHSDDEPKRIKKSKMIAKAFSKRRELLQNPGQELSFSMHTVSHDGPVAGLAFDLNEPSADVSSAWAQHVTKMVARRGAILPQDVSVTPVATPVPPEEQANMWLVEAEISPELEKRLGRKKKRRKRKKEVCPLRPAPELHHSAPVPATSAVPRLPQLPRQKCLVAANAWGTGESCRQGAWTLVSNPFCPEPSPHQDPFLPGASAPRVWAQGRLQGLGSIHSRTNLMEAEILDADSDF", "test": "NanoBRET saturation binding, live cells", "assay_type": "cell-based"}, "[2]": {"target": "Nluc-SMO (Mus musculus, UniProt P56726, D477G/E522K)", "sequence (P56726 33-793 D477G/E522K)": "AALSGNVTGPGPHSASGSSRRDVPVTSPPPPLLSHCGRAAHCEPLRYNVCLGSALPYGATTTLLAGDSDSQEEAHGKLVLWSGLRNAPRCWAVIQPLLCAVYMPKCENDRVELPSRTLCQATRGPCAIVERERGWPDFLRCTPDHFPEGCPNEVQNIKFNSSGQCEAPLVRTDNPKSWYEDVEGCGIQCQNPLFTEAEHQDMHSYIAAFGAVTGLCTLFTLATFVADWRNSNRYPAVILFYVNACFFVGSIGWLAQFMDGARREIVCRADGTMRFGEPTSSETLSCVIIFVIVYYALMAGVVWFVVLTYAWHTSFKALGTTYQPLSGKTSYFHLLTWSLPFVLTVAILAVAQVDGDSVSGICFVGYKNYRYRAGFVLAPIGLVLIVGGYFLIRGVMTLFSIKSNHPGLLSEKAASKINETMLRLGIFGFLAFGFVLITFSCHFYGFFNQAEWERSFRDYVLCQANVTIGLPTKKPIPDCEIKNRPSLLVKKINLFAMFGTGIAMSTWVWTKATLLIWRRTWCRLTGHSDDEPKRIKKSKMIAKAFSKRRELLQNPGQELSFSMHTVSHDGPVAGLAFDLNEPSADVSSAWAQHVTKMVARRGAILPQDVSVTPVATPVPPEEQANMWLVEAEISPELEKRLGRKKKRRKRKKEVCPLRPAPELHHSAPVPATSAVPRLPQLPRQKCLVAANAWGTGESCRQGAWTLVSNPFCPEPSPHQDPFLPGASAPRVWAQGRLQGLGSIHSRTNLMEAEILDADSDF", "test": "NanoBRET saturation binding, live cells", "assay_type": "cell-based"}}}
{"molecule": "CC1=CC(C)=[N+]2C1=Cc1ccc(CCC(=O)NCCCCCC(=O)NCCN3C[C@@H](C)C[C@H]4O[C@]5(CC[C@@H]6C(=C5C)C[C@H]5[C@H]6CC=C6C[C@@H](O)CC[C@@]65C)[C@H](C)[C@@H]43)n1[B-]2(F)F", "note": "[BODIPY-cyclopamine]", "values": [{"measurement": "Kd", "setting": "[1]", "result": "450 ± 38.7", "unit": "nM"}, {"measurement": "Kd", "setting": "[2]", "result": "666 ± 122", "unit": "nM"}]}
